Values quoted from earlier work as cited in US20020102237A1, “Compositions and methods for hepatitis treatment” (priority 2000, published 2002).

System: hepatitis C infection

Substance	response rate (long term efficacy) (chronic hepatitis C, interferon with or without Ribavirin)	patients responding with normalization of alanine aminotransferase (ALT) (hepatitis C infection, 3 million units subcutaneously three times weekly for six months)	relapse of responders upon discontinuation of therapy (hepatitis C infection, after standard six-month therapy)
interferon	about 25%	–	–
alpha-interferon	–	approximately 50%	half of those responding relapse
